Drawing on a melting point compilation (Tetko et al.; mined from patent text by program, amines drawn as free bases though some values may be those of a salt), this text covers melting point for 90 molecules.

In turn, `NP(=O)(O)CCc1ccccc1` had a melting point of 226 °C.

Molecule `CCOC(=O)c1cc(O)c(C(=O)c2ccccc2)c([N+](=O)[O-])c1` displayed a melting point of 167 to 168 °C.

As to `CC1(C)C(=O)NCCN1C(=O)C(Cc1ccccc1)N1C(=O)c2ccccc2C1=O` (stereo not given), the melting point is 221 to 223 °C.

`Cc1nc2c3c(c(C(=O)N4CC(O)C4)cc2n1C)CCC1(Cc2ccccc2C1)N3` registered a melting point of 171 to 172 °C.

For `O=C(OCCc1noc(-c2ccc(CN3CCCCCC3)s2)n1)c1ccccc1`, the melting point fell in the range of 121 to 123 °C.

As for `CC(CCc1ccc(F)cc1)(Cn1ccnc1)Sc1cccc(Cl)c1Cl` (stereo not given), the melting point lay within 131 to 132 °C.

The molecule `O=C1CCN(c2ccccc2)C(=O)C1=C1SC=CS1` gave a melting point of 150 to 152 °C.

`COC(=O)c1ccccc1N(c1ccccc1)C1(c2ccc(N(C)C)cc2)OC(=O)c2ccccc21` (stereo not given) had a melting point of 92.5 to 102 °C.

`COC(=O)c1ccc(C(=O)N(C)C)cc1` gave a melting point of 107 °C.

In the case of `COc1cc(-c2nc3ccccc3n2Cc2ccccc2C(F)(F)F)cc(OC)c1OC`, the melting point came to 144 °C.

Regarding `C[C@@H](NC(=O)c1c[nH]c2ncc(-c3nn(C)c4cc(Cl)ccc34)nc12)C(=O)N1CC[C@H](F)C1`, the melting point was in the range of 269 to 271 °C.

As for `O=C(NCCCN1CCN(Cc2ccc(Cl)cc2)CC1)Nc1ccccc1`, the melting point fell in the range of 135 to 137 °C.

As to `Cc1cc(SCc2ccc(OCc3ccccc3)cc2)ccc1OCC(=O)O`, the melting point is 120 to 121 °C.

The molecule `CCCc1c(OCCCCCc2c(Cl)c(Cl)c(Cl)c(OC)c2OC)ccc(C(=O)O)c1O` displayed a melting point of 148 to 150 °C.

For `N#Cc1ccc2sc(CBr)nc2c1`, the melting point lay within 185 to 186 °C.

`CC#CCOc1ccc(S(=O)C(C(=O)NO)C2CCCCC2)cc1` (stereo not given) returned a melting point of 188 °C.

`O=C(O)CSc1c(-c2cc(Cl)ccc2O)c2cc(C(F)(F)F)ccc2[nH]c1=O`: the melting point came out at 235 °C.

Take `CC(=O)OCn1cc(C#N)c(-c2ccccc2Cl)c1`: the melting point was 91 to 95 °C.

On to `CCCOc1ccc(S(=O)(=O)N2CCN(CC)CC2)cc1-c1nc2cc3ncn(Cc4ccc(F)cc4)c3cc2c(=O)[nH]1`, for which the melting point was in the range of 155 to 158 °C.

For `CC1(Br)CS(=O)C2C(NC(=O)Cc3ccccc3)C(=O)N2C1C(=O)OCC(Cl)(Cl)Cl` (stereo not given), the melting point fell in the range of 159 to 161 °C.

For the molecule `CC(C#Cc1ccc(Oc2ccccc2)cc1)N(O)C(N)=O` (stereo not given), the melting point lay within 141 to 142 °C.

The molecule `O=P1(c2ccc(Cl)cc2)c2ccccc2CN1c1ccccc1` (stereo not given) showed a melting point of 180 to 182 °C.

On to `O=C(N[C@H]1CC[C@H](CCN2CCN(c3nccc4c3OCC4)CC2)CC1)c1ccc(Cl)cc1Cl`, for which the melting point amounted to 244 °C.

On to `Cc1oc(C(C)(C)C)nc1COc1ccc(CC(OC(C)C)C(=O)O)c2sccc12` (stereo not given), for which the melting point was 166 to 167 °C.

Take `N#CC(=C(Nc1cc(C(F)(F)F)cc(C(F)(F)F)c1)NC1CCCC1)S(=O)(=O)c1ccc(Cl)cc1`: the melting point fell in the range of 199 to 200 °C.

Molecule `COc1cc(OC)nc(Sc2nccc(-c3cccc(Cl)c3)c2C(=O)NS(C)(=O)=O)n1` returned a melting point of 54 to 58 °C.

The molecule `CCOC(=O)c1cc2c(nc1CCl)CCCCC2` yielded a melting point of 81 to 82 °C.

`CCCCCCCc1ccc([C@H]2CC[C@H](O)CC2)cc1` showed a melting point of 80.2 to 82.5 °C.

The molecule `COc1ccc(-c2cc3nc(N4CCC4)c4ccccc4c3nn2)cc1` registered a melting point of 196 to 198 °C.

For `c1ccc([C@H]2C[C@@H]2Nc2cc(-c3ccco3)nc(-c3nccs3)n2)cc1` (relative stereo), the melting point lay in the range of 90 to 91.9 °C.

For `CCOC(=O)c1cnc2ccc(CC)nc2c1O`, the melting point lay in the range of 262 to 264 °C.

The molecule `O=C(O)/C=C/c1cc([N+](=O)[O-])ccc1O` displayed a melting point of 265 to 267 °C.

The molecule `COc1ccc(-c2cn(C)cc(-c3cccc(C(F)(F)F)c3)c2=O)cc1OC` returned a melting point of 148 to 150 °C.

As for `CC12CCC3c4ccc(C(=O)O)cc4CCC3C1CCC2C(=O)C1CCCCC1` (stereo not given), the melting point fell in the range of 280 to 285 °C.

For the molecule `C=CCS(=O)(=O)c1cccnc1S(=O)(=O)NC(=O)Nc1nc(OC)cc(OC)n1`, the melting point was determined as 185 °C.

In the case of `CN1C(=O)C(=O)c2cc(I)ccc21`, the melting point was in the range of 160 to 162 °C.

Molecule `O=c1c2ccc3[nH]ccc3c2ccn1Cc1ccc(F)cc1` displayed a melting point of 171 to 173 °C.

Regarding `O=C1CCC(N2C(=O)c3ccc([N+](=O)[O-])cc3C2=O)C(=O)N1` (stereo not given), the melting point fell in the range of 228 to 230 °C.

`Cc1ccc(Cl)c(Nc2ccccc2C(=O)NN)c1Cl` returned a melting point of 158 to 160 °C.

Regarding `CCCc1c(OCCCSc2ccc(CC(=O)O)c(Cl)c2Cl)ccc(C(C)=O)c1O`, the melting point was in the range of 119 to 122 °C.

Molecule `CCOC(=O)c1ncn(-c2nc(C)cs2)c1Cl` registered a melting point of 98 to 101 °C.

Take `CCCc1nc2c(N)nc3ccccc3c2n1CCCC(=O)N1CCOCC1`: the melting point lay within 200 to 202 °C.

The molecule `CC1(C)CC(NC(=O)c2cc([N+](=O)[O-])cc([N+](=O)[O-])c2)CC(C)(C)N1` came in with a melting point of 220 to 222 °C.

`O=c1ccc(-c2ccc(CCCO)cc2)cn1Cc1ccc(Cl)cc1` showed a melting point of 165 °C.

`FC(F)(F)c1cc(-c2ccc(Cl)c(Cl)c2)nc2c(-c3nc(Nc4ccccn4)no3)cnn12` registered a melting point of 289 °C.

In the case of `COC(=O)COc1nc(Cl)c(Cl)cc1Cl`, the melting point lay within 99 to 103 °C.

Molecule `C[C@@H](O)COc1c(N)ccc(F)c1F` displayed a melting point of 47 to 48 °C.

`CCOC(=O)C1=C(NC(=O)Nc2cc(C(=O)OC(C)C)c(Br)cc2F)CCC1` came in with a melting point of 150 to 154 °C.

Molecule `CCN(CC)C(=O)c1ccc(I)cc1` returned a melting point of 68 to 70 °C.

`COc1cccc2c1CCCC2CN=[N+]=[N-]` (stereo not given) registered a melting point of 65 to 66 °C.

In turn, `C[C@H]1Cc2c(F)c(F)cc3c(=O)c(C(=O)O)cn1c23` returned a melting point of 279 to 283 °C.

As to `O=C1NC(C(=O)O)CCCCCCCCCCC1CS` (stereo not given), the melting point lay in the range of 170 to 172 °C.

As for `CCOC(=O)c1c(OCC)nsc1NC(=O)NC`, the melting point fell in the range of 195 to 196 °C.

For the molecule `N[C@@H](CS(=O)(=O)O)C(=O)O`, the melting point fell in the range of 273 to 275 °C.

Molecule `COc1cc2ncnc(N3CCN(C(=O)Nc4ccc(C(=O)C(F)(F)F)cc4)CC3)c2cc1OC` registered a melting point of 144 to 146 °C.

As to `COc1cc(C(=O)c2csc(-c3ccncc3)n2)cc(OC)c1OC`, the melting point lay within 178 to 180 °C.

As for `CC=CC(c1ccc2c(c1)nnn2C)n1ccnc1` (stereo not given), the melting point came out at 104 °C.

The molecule `COC(=O)CCCCCCNC(=O)C(CO)NS(=O)(=O)c1ccc(Cl)cc1` (racemic) gave a melting point of 78 to 81 °C.

For `COC(=O)c1cc(OC)cc(-c2ccc(NC(C)=O)cc2)n1`, the melting point was in the range of 223 to 224 °C.

Take `O=C(Nc1ccc2c(c1)CS(=O)(=O)N2)C(=O)N1CCC(Cc2ccccc2)CC1`: the melting point is 181 to 182 °C.

Molecule `O=Cc1cc(Cl)ccc1Oc1ccc(Cl)cc1[N+](=O)[O-]` had a melting point of 128 to 130 °C.

In the case of `CN(CC(=O)OC(C)(C)C)S(=O)(=O)c1ccc2c(Cl)cnc(NC(=N)N)c2c1`, the melting point is 84 °C.

`O=C(OCc1ccccc1)N1C[C@@H](O)[C@H](Oc2cccc(Cl)c2Cl)C1` (relative stereo) yielded a melting point of 130 to 132 °C.

Molecule `c1ccc(-c2ccc3[nH]c4ccccc4c3c2)cc1` showed a melting point of 221 °C.

As to `Cn1c(=O)cnn(-c2cc(N)c(Cl)cc2F)c1=O`, the melting point was 150 to 152 °C.

Regarding `CC(C)CN1C(=O)c2cnc(-c3ccccc3)nc2N(C(=O)CCl)c2ccccc21`, the melting point fell in the range of 95 to 96 °C.

On to `O=C(O)Cn1c(=O)[nH][nH]c1=O`, for which the melting point fell in the range of 220 to 223 °C.

In the case of `C=CCOc1ccc(-c2cc(C(=O)NCc3ccc(OC(C)(C)C(=O)O)c(C)c3)nn2C)cc1`, the melting point was determined as 138 °C.

With `Cc1ccc2cccc(OCc3c(Cl)ccc(S(=O)(=O)N(CCCCN)C(C)(C)C)c3Cl)c2n1`, the melting point is 142 to 144 °C.

Molecule `Cc1nc(C=Cc2nc3ccccc3c(=O)n2-c2ccccc2Cl)cs1` gave a melting point of 219 to 221 °C.

For `COc1ccc(/C=C/c2ccc(Cl)cc2[N+](=O)[O-])c([N+](=O)[O-])c1`, the melting point was found to be 202 °C.

Molecule `COC(=O)c1sccc1Nc1ccccc1[N+](=O)[O-]` yielded a melting point of 184 °C.

With `CSc1nc(CO)c(CO)n1C`, the melting point was in the range of 119 to 120 °C.

As for `Cc1nn2ccccc2c1C=O`, the melting point is 77 to 79 °C.

For `CC(C)(C)c1cccc(S(=O)(=O)n2ccc3cc(C(F)(F)F)ccc32)c1`, the melting point fell in the range of 84 to 86 °C.

For `CCCSc1cn(C)cc(-c2cccc(C(F)(F)F)c2)c1=O`, the melting point lay in the range of 101 to 102 °C.

`O=C(N(c1ccccc1)c1nc(C(Cl)(Cl)Cl)ns1)C(Cl)(Cl)Cl` showed a melting point of 158 °C.

The molecule `Clc1ccc(-c2ccn3nccc3n2)cc1` returned a melting point of 178 to 180 °C.

Molecule `C=C1CC(C(=O)O)NC(C(=O)O)C1` (stereo not given) had a melting point greater than 250 °C.

Take `C=CCOCc1c(CN(C)C[C@@H](O)c2ccccn2)sc2c(=O)c(C(=O)NCc3ccc(Cl)cc3)cn(C)c12`: the melting point was 125 to 127 °C.

`O=C(Nc1ccc(-n2nc(C3CCCO3)cc2C(F)(F)F)cc1)c1ccncc1F` (stereo not given): the melting point lay within 116 to 118 °C.

`O=C(O)Cn1sc2ccccc2c1=O`: the melting point was 236 to 238 °C.

`Cc1cc(C#N)c(=O)[nH]c1C` came in with a melting point of 258 to 263 °C.

For the molecule `O=C(Cl)[C@H](Cc1ccccc1)NS(=O)(=O)c1ccc2ccccc2c1`, the melting point lay in the range of 141 to 143 °C.

Regarding `Cc1nc2ccccc2n1-c1nc(Cl)nc(Cl)n1`, the melting point was greater than 300 °C.

In turn, `CCCCCCOc1ccc(NC(=O)c2cnn(C)c2C)cc1C#N` had a melting point of 150 to 151 °C.

On to `O=S(=O)(Cl)c1ccc2scnc2c1`, for which the melting point lay in the range of 110 to 112 °C.

The molecule `CN(C)c1nc(NCc2ccc(NC(=O)c3ccc(F)cc3)cc2)c2ccc(CO)cc2n1` had a melting point of 158 °C.

On to `CC(N1CCN(c2nnn(Cc3ccc(C(C)(C)C)cc3)n2)CC1)C(O)(Cn1cncn1)c1ccc(F)cc1F` (stereo not given), for which the melting point is 99 to 101 °C.

Take `CC(Cl)(Cl)C(NC(=O)c1ccc(C(F)(F)F)cc1)NC(=NC#N)Nc1ccc(Cl)nc1` (stereo not given): the melting point was in the range of 210 to 211 °C.
